Series [1] can be described thus: conventional treatments of the same patients before NAC (case histories). To be noted: for response of effusion, tube plugging and otorrhea to conventional treatment: patient one (Example 4), 2002-2005, topical or oral. In kind it is in vivo, human.
Experiment in series [2]: as above
The format is in vivo, human. From the text:
They developed vertigo and bilateral otalgia in 1997, and presented to our practice. Given their prior history, they underwent an extensive workup from the outset. […] They underwent right-sided T tube placement for chronic Eustachian tube dysfunction in October 1997, with marked improvement of their pressure and fullness. However, they developed intermittent otorrhea, for which they received topical Tobradex. In November, the tube plugged completely, and they underwent tube replacement. Findings were notable for thick mucus filling the middle ear space. […] They underwent a right sided mastoidectomy with tube exchange in December 1997, with intraoperative findings notable for an inflamed mastoid cavity with several areas of cholesterol granuloma, as well as complete aditus blockade.
They continued to have thick, “taupe”-colored otorrhea after surgery. Considering their failure to respond to therapy, the differential was widened. Their evaluations for immunodeficiency and autoimmune pathology were negative. They underwent multiple TT placements and exchanges, as well as a negative culture and a wide laser tympanotomy in June 1998. The tympanotomy afforded them a brief hiatus from drainage from July through August. […] They also required office debridements every week or alternate week until they underwent a revision tympanomastoidectomy in October 1998. Intraoperative findings were notable for a clear mastoid, but a middle ear full of thick mucopurulence and edematous mucosa. The KTP laser was used to widen the tympanotomy and to ablate the middle ear mucosa to the Eustachian tube. Intraoperative cultures returned negative. Their course improved considerably, with only mild intermittent infections through July 1999. However, they were then diagnosed with breast cancer, which was treated with a modified radical mastectomy and adjuvant chemoradiation.
As they were completing their chemotherapy, they redeveloped the same otorrhea, which was treated with continuous, suppressive Floxin drops as well as frequent office debridements. They developed a mastoid abscess in March 2000, for which they underwent a repeat revision mastoidectomy. Preoperative CT imaging raised the concern for osteomyelitis. Intraoperative findings were notable for purulence in the mastoid and subcutaneous tissues, which were debrided widely. Intraoperative cultures returned penicillin-resistant, but otherwise pan-sensitive Staphylococcus aureus. Their otorrhea resumed in April after a brief hiatus. […] They continued to require office debridements on alternate weeks.
They had brief episodes of otorrhea in November 2001, and February and May 2002, which were treated easily with ototopicals.
Their otorrhea restarted in February 2003. They were begun on alternating courses of topical ciprofloxacin and Tobradex, oral azithromycin and metronidazole, as well as office debridements every week or alternating week. […] An infectious disease consultation was obtained, and they were started on high dose Septra per recommendations. […] A followup culture in October was negative.
Given their continued otorrhea, they underwent a revision modified radical tympanomastoidectomy in November 2004, with intraoperative findings notable for a large cholesterol granuloma extending from the mastoid tip to the retrosigmoid region towards the occiput. They had frank purulence in the epi-, pro-, and hypotympanum. The middle ear was packed with Zyvox-soaked Gelfoam. […] After a brief respite, their otorrhea restarted the following month. […] Multiple cultures returned negative except for occasional colonies of Candida albicans.
patient four is a diabetic with a history of frequent ear infections as a child. They developed ear plugging in May 2004, and was treated with oral antibiotics for otitis media. […] However, they developed chronic otorrhea after tube placement, which persisted despite multiple courses of oral and topical antibiotics. The TT was removed in September, after which they developed a chronic serous effusion. […]

A short description of series [3]: off-label treatment of patients with Ciprodex augmented with 2% NAC (case reports). The format is in vivo, human. To be noted: patient two (Example 1), oral, for presumed fungal superinfection. From the text:
These patients responded uniformly to the compositions of the present invention. All treated ears ceased to drain within 1-2 weeks of adequate treatment. No ototoxicity was documented by either patient report or audiometry.
Given their multiple treatment failures, they were started at this point on Ciprodex augmented with 2% NAC. Verbal informed consent was obtained prior to starting treatment, and they were continued on oral Zyvox. […] They were given a fresh mixture of NAC with Ciprodex, and their otorrhea and middle ear fluid resolved one week later. […] They have been refrigerating the medication between uses, and hand warming the solution before application.
In November 2005, SG underwent a two week course of topical Ciprodex augmented with 2% NAC. Verbal informed consent was obtained prior to starting treatment.
At this point, BT was started on a two week course of topical Ciprodex augmented with 2% NAC. Verbal informed consent was obtained prior to starting treatment.
In November 2005, DL was started on a two week course of topical Ciprodex augmented with 2% NAC. Verbal informed consent was obtained prior to starting treatment. […] The same solution was insufflated into the ear after an aggressive debridement, and they were started on another two week course. The patient traveled abroad for one month, and returned in January 2006. […]

Series [4] has as its system cochlear outer hair cell (OHC). To be noted: multiple studies; cited from earlier work.
For series [5] the following is noted: administered via transtympanic iontopheresis; cited from earlier work.
The conditions of series [6]: topical NAC, rat model of otitis media; cited from earlier work.
The subject of the next series is Bacillus species. To be noted: concentrations of 0.003% to 0.8%; cited from earlier work.
The conditions of series [7]: topical NAC, rabbit model of otitis media; cited from earlier work.
In series [8] the test system is cochlear outer hair cell (OHC). To be noted: co-administration with NAC at 0.017%; cited from earlier work.
A further series has as its system Haemophilus influenzae. To be noted: concentrations of 0.003% to 0.8%; cited from earlier work.
The subject of another series is Moraxella catarrhalis. To be noted: concentrations of 0.003% to 0.8%; cited from earlier work.
For a further series, the system named is Klebsiella pneumoniae. To be noted: concentrations of 0.003% to 0.8%; cited from earlier work.
Another series deals with Streptococcus pneumoniae. To be noted: concentrations of 0.003% to 0.8%; cited from earlier work.
For series [9] the following is noted: applied topically to children at a concentration of 2%; cited from earlier work.
For series [10] the following is noted: NAC at a concentration of 0.1%; cited from earlier work.
Series [11] has as its system Staphylococcus epidermidis. To be noted: concentrations of 0.003% to 0.8%; cited from earlier work.
For series [12] the following is noted: high first pass metabolism through the liver; cited from earlier work.
The test system of a further series is Escherichia coli. To be noted: concentrations of 0.003% to 0.8%; cited from earlier work.
In the next series the test system is Pseudomonas cultures. To be noted: cited from earlier work.
A further series concerns polymicrobial cultures. To be noted: concentrations of 0.003% to 0.8%; cited from earlier work.
Setting [13] is: patient two (Example 1), 1997-2005, topical or oral as stated.

Each structure is given as a SMILES string. Entries after “also recorded” stand apart in the source; their conditions may differ. Like-named read-outs stand apart in the source and are kept apart here.

For the compound `CC1COc2c(N3CCN(C)CC3)c(F)cc3c(=O)c(C(=O)O)cn1c23` (racemic) [Floxin, (±)-9-fluoro-2,3-dihydro-3-methyl-10-(4-methyl-1-piperazinyl)-7-oxo-7H-pyrido[1,3,3-de]-1,4-benzoxazine-6-carboxylic acid], the “response of effusion, tube plugging and otorrhea to conventional treatment” value (“response of effusion” for short) in [1] is recorded as “continued essentially unchanged”.

Consider `CC[C@H]1OC(=O)[C@H](C)[C@@H](O[C@H]2C[C@@](C)(OC)[C@@H](O)[C@H](C)O2)[C@H](C)[C@@H](O[C@@H]2O[C@H](C)C[C@H](N(C)C)[C@H]2O)[C@](C)(OC)C[C@@H](C)C(=O)[C@H](C)[C@@H](O)[C@]1(C)O` [Biaxin, 6-O-methylerythromycin], for which the “response of otorrhea to conventional treatment” value in [2] (setting [13]) was “failed to respond”.

With `Cc1ncc([N+](=O)[O-])n1CCO` [Flagyl, 2-Methyl-5-nitro-imidazole-1-ethanol], the “response of otorrhea to conventional treatment” value in series [2] (patient four (Example 2), 2004-2005, topical or oral as stated) is recorded as “otorrhea persisted”; in [2] (setting [13]), “symptoms continued essentially unabated”.

Turning to `CN(C/C=C/C#CC(C)(C)C)Cc1cccc2ccccc12.Cl` [Lamisil, (E)-N-(6,6-dimethyl-2-hepten-4-ynyl)-N-methyl-1-naphthalenemethanamine hydrochloride], the tolerability result in series [3] is “could tolerate only three days of treatment secondary to gastrointestinal side effects”.

`CC(=O)N[C@@H](CS)C(=O)O` [NAC, N-acetylcysteine]: the “protection against oxidative OHC damage from cisplatin or aminoglycosides” value in series [4] was “protect against oxidative OHC damage”. In [5], the “clearance of thick middle ear effusions” value was “may speed the clearance”. For the same compound, in [6], the “fibroblast proliferation, collagen synthesis, and inflammatory markers” value is “Marked reductions”; the tympanic membrane scarring result is “effectively reduced this scarring”. Further, the “adherence of Bacillus species to stainless steel” value with Bacillus species is “reduces the adherence”. Besides, in series [7], the “fibroblast proliferation, collagen synthesis, and inflammatory markers” value is “Marked reductions”; the tympanic membrane scarring entry was “effectively reduced this scarring”. Also, the “hydrogen peroxide-mediated damage to OHCs” value in series [8] is “completely prevented”. For the same compound, the “adherence of Haemophilus influenzae to mucus and human oropharyngeal cells” value with Haemophilus influenzae is given as “reduces the adherence”. The “adherence of Moraxella catarrhalis to human pharyngeal cells” value with Moraxella catarrhalis is reported as “reduces the adherence”. Also, in the series on Klebsiella pneumoniae, the “adherence of Klebsiella pneumoniae to polystyrene” value is recorded as “reduces the adherence”. Moreover, the “adherence of Streptococcus pneumoniae to human oropharyngeal cells” value in the series on Streptococcus pneumoniae is on record as “reduces the adherence”. Besides, in [9], the “TT reinsertion, recurrence of otitis media, need for physician visits” value was “decreases” and the “tympanostomy tube (TT) longevity” value was “increases”. In series [10], the viscosity reductions is 21-39%. Also, the “adherence of Staphylococcus epidermidis to polystyrene” value in [11] is recorded as “reduces the adherence”. Also, the oral bioavailability in series [12] is recorded as 5-10%. In addition, the “adherence of Escherichia coli to polystyrene” value with Escherichia coli is “reduces the adherence”. Further, the “killing of Pseudomonas cultures” value in the series on Pseudomonas cultures (NAC administered alone, concentration of only 0.002%) was 95%. Moreover, the “decrease of the efficacy of aminoglycoside antibiotics” value in the series with Pseudomonas cultures (combination with aminoglycoside antibiotics) is on record as 2-16 fold. Also, the “interaction with ticarcillin and carbenicillin” value with Pseudomonas cultures (combination with ticarcillin and carbenicillin) is “strong synergy”. Moreover, the “adherence of polymicrobial cultures to stainless steel and tracheoesophageal puncture prostheses” value in the series on polymicrobial cultures was “reduces the adherence”.

`CN[C@@H](C)[C@@H](O)c1ccccc1` [Sudafed]: the “response of effusion” value in series [1] was “effusion and plugging continued”.

`CC[C@H]1OC(=O)[C@H](C)[C@@H](O[C@H]2C[C@@](C)(OC)[C@@H](O)[C@H](C)O2)[C@H](C)[C@@H](O[C@@H]2O[C@H](C)C[C@H](N(C)C)[C@H]2O)[C@](C)(O)C[C@@H](C)CN(C)[C@H](C)[C@@H](O)[C@]1(C)O` [azithromycin]: in series [1], the “response of effusion” value is “effusion and plugging continued; also recorded: continued essentially unchanged”. For the same compound, the “response of otorrhea to conventional treatment” value in [2] (setting [13]) is “symptoms continued essentially unabated”.

In the case of `O=C(N[C@H](CO)[C@H](O)c1ccc([N+](=O)[O-])cc1)C(Cl)Cl` [chloramphenicol], in series [2] (setting [13]), the “response of otorrhea to conventional treatment” value is listed as “failed to respond”.

On to `O=C(O)c1cn(C2CC2)c2cc(N3CCNCC3)c(F)cc2c1=O` [ciprofloxacin drops, 1-cyclopropyl-6-fluoro-1,4-dihydro-4-oxo-7-(1-piperazinyl)-3-quinolinecarboxylic acid], for which the “response of effusion” value in series [1] is “effusion and plugging continued; also recorded: tube plugging and otorrhea continued”. Also, the “response of otorrhea/effusion to conventional treatment” value in [1] (patient three (Example 3), 2005, topical or oral as stated) is recorded as “developed recurrent otorrhea on the right side”. In addition, the “response of otorrhea to conventional treatment” value in series [2] (setting [13]) is given as “continued to drain through December; also recorded: failed to respond; also recorded: otorrhea resolved”; in series [2] (patient two (Example 1), 1997-2005, topical or oral as stated, listed as ciprofloxacin), “symptoms continued essentially unabated”.

As for `CN[C@H](CC(C)C)C(=O)N[C@H]1C(=O)N[C@@H](CC(N)=O)C(=O)N[C@H]2C(=O)N[C@H]3C(=O)N[C@H](C(=O)N[C@H](C(=O)O)c4cc(O)cc(O)c4-c4cc3ccc4O)[C@H](O)c3ccc(c(Cl)c3)Oc3cc2cc(c3O[C@@H]2O[C@H](CO)[C@@H](O)[C@H](O)[C@H]2O[C@H]2C[C@](C)(N)[C@H](O)[C@H](C)O2)Oc2ccc(cc2Cl)[C@H]1O` [vancomycin], the “response of otorrhea to conventional treatment” value in series [2] (setting [13]) is on record as “some improvement”.

The values above are taken from patent publication US20080139545A1, “FORMULATION TO TREAT EAR INFECTION” (priority 2006, published 2008).
